We go through 18 compounds from ChEMBL document CHEMBL5579800, “Further structural optimization and SAR study of sungsanpin derivatives as cell-invasion inhibitors” (Bioorg Med Chem Lett, 2024).

The source made the active and inactive calls. The calls are words filed in the database; no cut-off is given here. Where a SMILES comes first, the peptide text is derived from it.

The subject of series [1] is A549. In words: Cytotoxicity against human A549 cells assessed as cell viability upto 100 uM by CCK8 assay. Conditions: a549, 100 µM. It counts as toxicity, cell-based.
Series [2] has as its system A549. In words: Inhibition of cell invasion in human A549 cells at 100 uM. It counts as functional, cell-based.
In series [3] the test system is A549. The experiment in a line: Downregulation of MMP-2 level in human A549 cells at 100 uM by Western blot analysis. It counts as functional, cell-based. (In general: A western blot detects proteins with antibodies after separation by electrophoresis.)
Series [4] relates to A549. The experiment in a line: Inhibition of cell invasion in human A549 cells at 25 to 100 uM. It counts as functional, cell-based. Conditions: dose 25-100 µM.
Series [5] deals with A549. The experiment in a line: Upregulation of TIMP-2 mRNA level in human A549 cells at 100 uM by qPCR analysis. It counts as functional, cell-based. In general terms: Real-time PCR tracks product formation cycle by cycle.
Series [6] relates to A549. In words: Upregulation of TIMP-2 level in human A549 cells at 100 uM by Western blot analysis. It counts as functional, cell-based.
The subject of series [7] is A549. In words: Upregulation of TIMP-1 level in human A549 cells at 100 uM by Western blot analysis. It counts as functional, cell-based.
The test system of series [8] is A549. In words: Upregulation of TIMP-1 mRNA level in human A549 cells at 100 uM by qPCR analysis. It counts as functional, cell-based.
The nature of series [9]: Stability in human serum assessed as half life by HPLC analysis. Type of series: ADME, cell-free.
Series [10] is described as follows: Stability in human serum assessed as compound remaining measured after 24 hrs by HPLC analysis. Type of series: ADME, cell-free. Conditions: read-out: Stability.
Series [11] concerns A549. In words: Inhibition of cell invasion in human A549 cells. Conditions: dose 25-100 µM. It counts as functional, cell-based.
The subject of series [12] is A549. In words: Inhibition of cell invasion in human A549 cells by microscopy. Conditions: dose 25-100 µM. It counts as functional, cell-based.
For series [13], the system named is A549. The experiment in a line: Inhibition of cell invasion in human A549 cells at 100 uM by microscopy. It counts as functional, cell-based.
The subject of series [14] is A549. The experiment in a line: Downregulation of MMP-9 level in human A549 cells at 100 uM by Western blot analysis. It counts as functional, cell-based.

Take H-DSFGLSWA-OH: the Activity result in the series with A549 [1] is recorded as “Non-Toxic”. In addition, the inhibition entry in the series on A549 [2] is “inactive”.
For H-DSFGLSAL-OH, in that order: “Non-Toxic” and “inactive”.
Take H-DSFDLSWL-OH: in the series with A549 [1], the Activity result is reported as “Non-Toxic”.
On to `CC(C)C[C@@H]1NC(=O)[C@H](CCCCN)NC(=O)[C@H](Cc2ccccc2)NC(=O)[C@H](CO)NC(=O)[C@H](CC(=O)O)NC(=O)[C@H](CC(C)C)NC(=O)[C@H](Cc2c[nH]c3ccccc23)NC(=O)[C@H](CO)NC1=O` (cyclo(DSFKLSWL)), for which, in the series on A549 [1], the Activity result was “Non-Toxic”.
Consider H-DSFVLSWL-OH, for which the Activity entry in the series with A549 [1] is listed as “Non-Toxic”. Moreover, the result in the series on A549 [3], in the series with A549 [7] and in the series on A549 [8] was Active. In the series on A549 [4], the inhibition entry is “Active”. Further, the result in the series on A549 [5] and with A549 [6] was inactive.
Ac-DSFGLSWL-NH2: the Activity result in the series on A549 [1] is on record as “Non-Toxic”. Also, the inhibition entry in the series on A549 [2] was “inactive”.
As usually defined, the half-life is the time in which the quantity being followed falls by half. Consider `CC(C)C[C@@H]1NC(=O)[C@H](C)NC(=O)[C@H](Cc2ccccc2)NC(=O)[C@H](CO)NC(=O)[C@H](CC(=O)O)NC(=O)[C@H](CC(C)C)NC(=O)[C@H](Cc2c[nH]c3ccccc23)NC(=O)[C@H](CO)NC1=O` (cyclo(ALSWLDSF)), for which the Activity result in the series on A549 [1] is reported as “Non-Toxic”. The half-life in series [9] is over 24 h. Further, the remaining at 24 h in [10] was over 80%. Further, the outcome in the series with A549 [5], in the series with A549 [7] and with A549 [8] was Active. Further, in the series with A549 [6], the result was inactive. Also, the inhibition result in the series on A549 [11] and in the series on A549 [12] was “Dose-Dependent Effect” in each case.
Consider H-DSFGASWL-OH, for which the Activity result with A549 [1] is recorded as “Non-Toxic”. Moreover, the inhibition entry with A549 [2] was “inactive”.
As for `CC(C)C[C@@H]1NC(=O)CNC(=O)[C@H](Cc2ccccc2)NC(=O)[C@H](CO)NC(=O)[C@H](CC(=O)O)NC(=O)[C@H](CC(C)C)NC(=O)[C@H](Cc2c[nH]c3ccccc23)NC(=O)[C@H](CO)NC1=O` (cyclo(DSFGLSWL)), in the series on A549 [1], the Activity entry is “Non-Toxic”.
Take H-DSFALSWL-OH: the inhibition entry in the series with A549 [13] and with A549 [2] was “Active” throughout. In the series with A549 [1], the Activity entry was “Non-Toxic”. Besides, the remaining at 24 h in series [10] was about 23%. Further, the result with A549 [14], in the series with A549 [5], in the series on A549 [7] and in the series with A549 [8] was Active. Also, the result with A549 [6] was inactive. Moreover, the inhibition result in the series with A549 [11] was “Dose-Dependent Effect”.
For H-DSFGLAWL-OH, in the series with A549 [1], the Activity result is “Non-Toxic”.
H-DSFLLSWL-OH: the Activity result in the series on A549 [1] was “Non-Toxic”. For the same compound, the inhibition entry with A549 [4] is “inactive”.
Take H-DAFGLSWL-OH: the Activity entry in the series with A549 [1] was “Non-Toxic”. In addition, the inhibition entry with A549 [2] was “inactive”.
For H-ASFGLSWL-OH, in that order: “Non-Toxic” and “inactive”.
Turning to H-DSFKLSWL-OH, the Activity result in the series with A549 [1] is “Non-Toxic”. Besides, the result with A549 [3], in the series on A549 [7] and with A549 [8] was Active. Besides, the outcome in the series with A549 [5] and in the series with A549 [6] was inactive. The inhibition entry in the series on A549 [11] is “Dose-Dependent Effect”.
With H-DSFGLSWL-OH, the Activity result in the series with A549 [1] is “Non-Toxic”.
Still for that read-out and setting: the same measure for H-DSAGLSWL-OH: “Non-Toxic”.
On the same count and under the same terms, the same measure for H-DSFRLSWL-OH: “Non-Toxic”.
